Measured values as given in ChEMBL document CHEMBL1134775, “Structure-based design: potent inhibitors of human brain memapsin 2 (beta-secretase)” (J Med Chem, 2001).

Target: Beta-secretase 1 (Homo sapiens, UniProt P56817)
Assay: Binding affinity for human brain memapsin 2

Beta-secretase 1, sequence (P56817 whole entry): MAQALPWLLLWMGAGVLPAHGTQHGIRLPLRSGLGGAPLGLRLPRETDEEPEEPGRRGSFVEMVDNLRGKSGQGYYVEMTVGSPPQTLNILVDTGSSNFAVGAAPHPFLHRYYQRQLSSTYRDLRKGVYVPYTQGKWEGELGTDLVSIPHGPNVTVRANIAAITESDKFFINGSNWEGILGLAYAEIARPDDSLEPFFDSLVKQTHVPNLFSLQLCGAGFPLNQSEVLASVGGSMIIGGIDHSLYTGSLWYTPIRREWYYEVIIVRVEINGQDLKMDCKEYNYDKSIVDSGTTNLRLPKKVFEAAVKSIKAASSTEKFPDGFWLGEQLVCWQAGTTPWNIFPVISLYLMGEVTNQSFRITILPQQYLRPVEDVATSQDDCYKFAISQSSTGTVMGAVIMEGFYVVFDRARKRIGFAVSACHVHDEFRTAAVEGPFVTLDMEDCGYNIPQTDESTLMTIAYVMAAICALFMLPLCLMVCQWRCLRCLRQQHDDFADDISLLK

Row | SMILES | Ki
1 | CC(C)C[C@H](NC(=O)[C@H](CC(N)=O)NC(=O)[C@@H](NC(=O)OC(C)(C)C)C(C)C)[C@@H](O)C[C@@H](C)C(=O)N[C@H](C(=O)NCc1ccccc1)C(C)C | 5.9 nM
2 | CSCC[C@H](NC(=O)OC(C)(C)C)C(=O)N[C@@H](CC(C)C)[C@@H](O)C[C@@H](C)C(=O)N[C@H](C(=O)NCc1ccccc1)C(C)C | 5810 nM
3 | CC(C)C[C@H](NC(=O)[C@H](CC(N)=O)NC(=O)OC(C)(C)C)[C@@H](O)C[C@@H](C)C(=O)N[C@@H](C)C(=O)NCc1ccccc1 | 22400 nM
4 | CC(C)C[C@H](NC(=O)[C@H](CS(C)(=O)=O)NC(=O)OC(C)(C)C)[C@@H](O)C[C@@H](C)C(=O)N[C@H](C(=O)NCc1ccccc1)C(C)C | 1130 nM
5 | CC(C)C[C@H](NC(=O)[C@H](CC(N)=O)NC(=O)C(N)C(C)C)[C@@H](O)C[C@@H](C)C(=O)N[C@@H](C)C(=O)N[C@H](CCC(=O)O)C(=O)NC(Cc1ccccc1)C(=O)O (some centres undefined) | 36 nM
6 | CC(C)C[C@H](NC(=O)[C@H](CS(C)(=O)=O)NC(=O)[C@@H](NC(=O)OC(C)(C)C)C(C)C)[C@@H](O)C[C@@H](C)C(=O)N[C@H](C(=O)NCc1ccccc1)C(C)C | 9.4 nM
7 | CSCC[C@H](NC(=O)[C@@H](NC(=O)OC(C)(C)C)C(C)C)C(=O)N[C@@H](CC(C)C)[C@@H](O)C[C@@H](C)C(=O)N[C@H](C(=O)NCc1ccccc1)C(C)C | 2.5 nM
8 | CSC[C@H](NC(=O)[C@@H](NC(=O)OC(C)(C)C)C(C)C)C(=O)N[C@@H](CC(C)C)[C@@H](O)C[C@@H](C)C(=O)N[C@H](C(=O)NCc1ccccc1)C(C)C | 50.1 nM
9 | CC(C)C[C@H](NC(=O)[C@H](CC(N)=O)NC(=O)[C@@H](NC(=O)OC(C)(C)C)C(C)C)[C@@H](O)C[C@@H](C)C(=O)N[C@@H](C)C(=O)NCc1ccccc1 | 61.4 nM
